Molecules are shown by their SMILES. “And” between values parts separate entries of the source, which are not always exact repeats. Identical values can stand only once. Records with an inconclusive call do not appear. The source made the active and inactive calls.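 Rule for the calls: active = compounds whose fitted half-maximal concentration is at most twice their own top valid dose, with signal falling; inconclusive = flat curve with 30 to 70% inhibition, or poor fit; inactive = the rest.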 Where only a bound is given, the exact number is not on record here.

Tested on in one assay: not listed separately
In words: inhibitors of CFW-induced Rlm1 reporter, dose response, S. cerevisiae, lacZ luminescence, calcofluor white, dry powder (AID 743124). The conditions noted are these: S. cerevisiae Rlm1-lacZ reporter, CFW-induced, luminescence 4 h; at 35 µM (top of the series).
On to `CCOC(=O)c1c(NC(=O)CNCCN(C)C)sc(C)c1-c1ccccc1`, for which the activity change, negative = inhibition was -8.38% (inactive).

On to `COC(=O)C1=C(C)N(Cc2ccc(Br)cc2)C(=S)NC1c1ccc(OC)cc1` (centres undefined), for which the activity change, negative = inhibition is 1.69% (inactive). Same read-out and setting: in the case of `COC(=O)C1=C(C)N(Cc2ccccc2)C(=S)NC1c1ccc(Br)cc1` (centres undefined) it was 9.97% (inactive); in that of `CCOC(=O)c1c(-c2ccc(F)cc2)csc1NC(=O)CN1CCN(CC)CC1`, -5.43% (inactive); in that of `CCOC(=O)c1c(-c2ccc(F)cc2)csc1NC(=O)CN1CCN(C)CC1`, -6.7% (inactive). Same read-out and setting: the same measure for `Cc1ccc(OCCn2cnc3ccccc32)cc1`: 15.9% (inactive); for `Cc1ccc2c(c1)[nH]c(=S)n2CCOc1ccccc1`: -5.38% (inactive). The same measure, in the same setting: the same measure for `COC(=O)C1=C(C)N(Cc2ccc(Cl)cc2)C(=S)NC1c1ccc(Br)cc1` (centres undefined): 0.264% (inactive); for `Cc1ccccc1OCCn1c(=S)[nH]c2ccccc21`: -14.7% (inactive). As for `CCOC(=O)c1c(-c2ccc(C(C)(C)C)cc2)csc1NC(=O)CN1CCN(CC)CC1`, the activity change, negative = inhibition was -28.1% (inactive). Still for that read-out and setting: in the case of `CCOC(=O)c1c(-c2ccc(OC)cc2)csc1NC(=O)CN(C)CC(=O)N(C)C` it was -25% (inactive).

`O=c1[nH]c2ccccc2n1CCOc1ccccc1`: the activity change, negative = inhibition was 6.62% (inactive) and -10.4% (inactive). On the same count and under the same terms, in the case of `Cc1ccc(OCCn2c(C)nc3ccccc32)cc1` it was 13.6% (inactive).

The next assay has as its system S. cerevisiae Rlm1-lacZ reporter, CFW-induced, luminescence 4 h. The description is as above.
Conditions: not given
Consider `COC(=O)C1=C(C)N(Cc2ccc(F)cc2)C(=S)NC1c1cccc(F)c1` (centres undefined), for which the AC50 is > 70 µM (inactive). Still for that read-out and setting: in the case of `CCOC(=O)c1c(NC(=O)CN2CCN(C)CC2)sc(C)c1-c1ccc(C)cc1` it was > 70 µM (inactive); in that of `Fc1cccc2c1[nH]c(=S)n2CCOc1ccccc1`, > 70 µM (inactive). Same read-out and setting: in the case of `Cc1ccc(OCCn2c(=S)[nH]c3ccccc32)cc1` it was 33.2 µM; in that of `Fc1ccccc1OCCn1c(=S)[nH]c2ccccc21`, > 70 µM (inactive). The same measure, in the same setting: the same measure for `Cc1ccc(C(C)C)c(OCCn2c(=S)[nH]c3ccccc32)c1`: > 70 µM (inactive).

`S=c1[nH]c2ccccc2n1CCOc1ccccc1`: the AC50 is > 70 µM (inactive). Still for that read-out and setting: in the case of `CCOC(=O)c1c(-c2ccc(-c3ccccc3)cc2)csc1NC(=O)CNCCN(C)C` it was > 70 µM (inactive).

On to `COC(=O)C1=C(C)N(Cc2ccc(Br)cc2)C(=S)NC1c1ccc(F)cc1` (centres undefined), for which the AC50 was > 70 µM (inactive). Still for that read-out and setting: the same measure for `S=c1[nH]c2cccc(Cl)c2n1CCOc1ccccc1`: 26.7 µM. As for `Cc1ccc(OCCn2c(SCCO)nc3ccccc32)c(C(C)C)c1`, the AC50 was > 70 µM (inactive).

A word on the AC50: it is the concentration at which the activity in the assay is half-maximal.

These data come from PubChem BioAssay AID743124 (Broad Institute, 2013).
